How the values were obtained:
[1] = target: T1, Adenosine receptor A3 (Homo sapiens) (UniProt P0DMS8); assay: Percent inhibition against human adenosine A3 receptor expressed in CHO cells using [125I]AB-MECA at 1 uM; type: cell-based
T1 sequence (whole entry): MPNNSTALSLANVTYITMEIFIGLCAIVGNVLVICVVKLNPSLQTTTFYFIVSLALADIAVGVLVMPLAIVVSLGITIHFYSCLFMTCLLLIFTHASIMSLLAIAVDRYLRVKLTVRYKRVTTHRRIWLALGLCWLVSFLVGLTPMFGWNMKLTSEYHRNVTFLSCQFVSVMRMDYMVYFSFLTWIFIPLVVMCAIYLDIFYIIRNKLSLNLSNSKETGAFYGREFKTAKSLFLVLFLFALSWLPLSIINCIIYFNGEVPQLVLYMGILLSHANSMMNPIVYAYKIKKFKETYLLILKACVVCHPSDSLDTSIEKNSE

[2] = target: T2, Adenosine receptor A1 (Bos taurus, UniProt P28190)
T2 sequence (P28190 whole entry): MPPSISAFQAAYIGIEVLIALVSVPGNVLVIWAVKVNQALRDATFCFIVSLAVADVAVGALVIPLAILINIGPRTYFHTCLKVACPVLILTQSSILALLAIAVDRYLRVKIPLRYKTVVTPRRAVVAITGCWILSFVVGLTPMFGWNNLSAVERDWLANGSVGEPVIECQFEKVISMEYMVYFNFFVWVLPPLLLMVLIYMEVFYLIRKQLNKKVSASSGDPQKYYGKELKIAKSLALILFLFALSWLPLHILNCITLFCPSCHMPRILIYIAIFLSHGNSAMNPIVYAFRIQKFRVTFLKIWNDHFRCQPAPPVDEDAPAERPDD
Description: Binding affinity against adenosine A1 receptor in bovine brain membranes by [3H]CHA displacement.

[3] = system: Adenosine receptor A2a (Bos taurus); assay: Inhibition of [3H]-CGS- 21680 binding to adenosine A2a receptor of bovine striatal membranes
[4] = target: Adenosine receptor A2a (Bos taurus)
[5] = target: T3, Adenosine receptor A3 (Homo sapiens, UniProt P0DMS8); assay: biochemical
T3 sequence (P0DMS8 whole entry): T1 sequence (whole entry)
Description: Binding affinity against human adenosine A3 receptor expressed in CHO cells by [125I]AB-MECA displacement.

[6] = target: T4, Adenosine receptor A1 (Bos taurus) (UniProt P28190); assay: Inhibition of [3H]CHA binding to adenosine A1 receptor of bovine brain membranes; type: cell membranes
T4 sequence (whole entry): T2 sequence (P28190 whole entry)

[7] = target: T5, Adenosine receptor A1 (Homo sapiens) (UniProt P30542); assay: Percent inhibition against human adenosine A1 receptor expressed in CHO cells using [3H]CHA at 10 uM; type: cell-based
T5 sequence (whole entry): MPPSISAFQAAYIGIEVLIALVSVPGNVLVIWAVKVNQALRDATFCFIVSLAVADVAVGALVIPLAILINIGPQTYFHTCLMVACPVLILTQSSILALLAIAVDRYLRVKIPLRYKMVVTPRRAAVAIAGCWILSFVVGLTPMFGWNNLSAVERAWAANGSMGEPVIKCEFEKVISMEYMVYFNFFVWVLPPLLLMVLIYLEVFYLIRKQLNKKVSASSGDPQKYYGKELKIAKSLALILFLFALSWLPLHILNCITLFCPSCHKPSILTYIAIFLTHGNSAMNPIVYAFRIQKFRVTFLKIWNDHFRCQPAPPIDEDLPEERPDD

[8] = target: T3, Adenosine receptor A3; assay: Effective concentration for inhibition of NECA-stimulated [35S]GTP-gamma-S, binding at human adenosine A3 receptor expressed in CHO cells; type: functional, cell-based
[9] = target: Adenosine receptors; A1 & A3 (Homo sapiens) (UniProt P30542+P0DMS8); assay: Selectivity as ratio of affinity against human adenosine A3 and A1 receptors; type: protein assay
[10] = target: Adenosine receptors; A2a & A3 (Homo sapiens) (UniProt P0DMS8+P29274); assay: Selectivity as ratio of affinity against human adenosine A3 and A2A receptors; type: protein assay
[11] = target: T6, Adenosine receptor A1 (Homo sapiens, UniProt P30542); assay: biochemical
T6 sequence (P30542 whole entry): T5 sequence (whole entry)
Description: Binding affinity against human adenosine A1 receptor expressed in CHO cells using [3H]CHA

Sequence of Adenosine receptors; A2a & A3 (Homo sapiens) (P29274 whole entry, looked up, one chain of several): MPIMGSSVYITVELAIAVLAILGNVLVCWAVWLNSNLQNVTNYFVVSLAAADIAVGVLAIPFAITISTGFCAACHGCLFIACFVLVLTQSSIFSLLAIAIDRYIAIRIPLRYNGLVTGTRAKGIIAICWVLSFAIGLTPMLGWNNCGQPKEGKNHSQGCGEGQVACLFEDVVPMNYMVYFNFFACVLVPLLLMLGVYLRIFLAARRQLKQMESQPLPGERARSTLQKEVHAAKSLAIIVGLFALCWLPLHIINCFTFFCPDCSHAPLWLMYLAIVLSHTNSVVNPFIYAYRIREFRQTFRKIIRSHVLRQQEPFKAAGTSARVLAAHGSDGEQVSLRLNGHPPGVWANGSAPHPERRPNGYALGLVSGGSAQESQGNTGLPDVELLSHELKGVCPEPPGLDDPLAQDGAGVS

| Compound | Ki [2] | I [3] | Ki [5] | I [6] | other results |
| --- | --- | --- | --- | --- | --- |
| O=c1[nH]c2c([N+](=O)[O-])cccc2n2c(=O)n(-c3ccc([N+](=O)[O-])cc3)nc12 | 91 nM | 0% | – | – | I [1]: 24% |
| Nc1nc2ccccc2n2c(=O)n(-c3ccc(O)cc3)nc12 | 116 nM | – | 73.2 nM | – | Ki [4]: 80 nM |
| O=c1[nH]c2c([N+](=O)[O-])cccc2n2c(=O)n(-c3ccc(O)cc3)nc12 | – | 4% | – | 38% | I [1]: 21% |
| COc1ccc(-n2nc3c(=O)[nH]c4ccccc4n3c2=O)cc1 | – | – | – | – | I [7]: 42% |
| O=c1[nH]c2ccccc2n2c(=O)n(-c3ccc([N+](=O)[O-])cc3)nc12 | – | 21% | 0.6 nM | 19% | EC50 [8]: 5.4 nM; I [7]: 32%; Selectivity ratio [9]: > 16600; Selectivity ratio [10]: > 16600 |
| Nc1cccc2c1[nH]c(=O)c1nn(-c3ccc(O)cc3)c(=O)n12 | 996 nM | 36% | – | – | I [1]: 39% |
| CC(=O)Oc1ccc(-n2nc3c(=O)[nH]c4ccccc4n3c2=O)cc1 | 26 nM | – | 11.2 nM | – | Ki [4]: 9700 nM; Ki [11]: 320 nM |
| COc1ccc(-n2nc3c(N)nc4ccccc4n3c2=O)cc1 | – | – | – | – | Ki [11]: 69 nM |
| CCOc1ccc(-n2nc3c(N)nc4ccccc4n3c2=O)cc1 | 537 nM | – | 203 nM | – | Ki [4]: 13000 nM |
| O=c1[nH]c2ccccc2n2c(=O)n(-c3ccc(O)cc3)nc12 | 30.6 nM | – | 47 nM | – | Ki [11]: 168 nM |
| Nc1ccc(-n2nc3c(=O)[nH]c4ccccc4n3c2=O)cc1 | – | – | 3600 nM | – | – |
| CC(=O)Oc1ccc(-n2nc3c(=O)[nH]c4c([N+](=O)[O-])cccc4n3c2=O)cc1 | – | 0% | – | 21.3% | I [1]: 20% |
| Nc1ccc(-n2nc3c(N)nc4ccccc4n3c2=O)cc1 | 48 nM | – | 335 nM | – | Ki [4]: 3.6 nM |
| Nc1nc2ccccc2n2c(=O)n(-c3ccc([N+](=O)[O-])cc3)nc12 | – | 31% | – | 11.9% | I [1]: 28% |
| CCOc1ccc(-n2nc3c(=O)[nH]c4ccccc4n3c2=O)cc1 | – | – | 175 nM | – | – |
| CN(C)c1ccc(-n2nc3c(=O)[nH]c4ccccc4n3c2=O)cc1 | 578 nM | 0% | 429 nM | – | – |

Now from value to compound, other results behind:

| Ki [2] | I [3] | Ki [5] | I [6] | Compound | other results |
| --- | --- | --- | --- | --- | --- |
| 61 nM | – | 176 nM | – | Nc1cccc2c1nc(N)c1nn(-c3ccc(O)cc3)c(=O)n12 | Ki [4]: 181 nM |
| 82 nM | – | 4.75 nM | – | Nc1nc2c([N+](=O)[O-])cccc2n2c(=O)n(-c3ccccc3)nc12 | Ki [11]: 870 nM |
| 155 nM | 2.7% | – | – | Nc1nc2c([N+](=O)[O-])cccc2n2c(=O)n(-c3ccc([N+](=O)[O-])cc3)nc12 | I [1]: 30% |
| – | – | 22 nM | 38% | COc1ccc(-n2nc3c(N)nc4c(N)cccc4n3c2=O)cc1 | Ki [4]: 1050 nM; Ki [11]: 186 nM |
| – | 14% | – | 25% | COc1ccc(-n2nc3c(=O)[nH]c4c([N+](=O)[O-])cccc4n3c2=O)cc1 | I [7]: 0% |
| – | 23% | 83 nM | 16% | COc1ccc(-n2nc3c(=O)[nH]c4c(N)cccc4n3c2=O)cc1 | – |
| 446 nM | – | – | – | Nc1nc2c([N+](=O)[O-])cccc2n2c(=O)n(-c3ccc(O)cc3)nc12 | I [1]: 45%; Ki [4]: 1600 nM |
| – | 16.5% | 47 nM | 19% | COc1ccc(-n2nc3c(N)nc4c([N+](=O)[O-])cccc4n3c2=O)cc1 | I [7]: 45% |
